Laboratory results as given in patent US20230255939A1, “Antimicrobial Agent for Non-Human Animal” (ISHIHARA SANGYO KAISHA, LTD, priority 2020, published 2023).
Values after ≈ are worked out from the molar mass of the structure shown. Read-outs that look alike come from different tables or passages of the source.

What was measured:
Format in all cases: cell-based
[1] = tested on: Arthroderma vanbreuseghemii (TIMM2789); test: Antifungal activity test, minimum inhibitory concentration (Test Example 9); conditions: Trichophyton mentagrophytes, Sabouraud media, 28° C. for 72 hours, read-out: Minimum inhibitory concentration (MIC100)
Experimental: Test Example 9: Antifungal Activity Test Test Compound: Compound No. 1 Test Microbial Strain: Arthroderma Vanbreuseghemii (TIMM2789) The microbial strain was cultured in a Sabouraud medium containing 500 µg/mL of cycloheximide and 50 µg/mL of chloramphenicol at 28° C. for 8 days, then spores were collected in physiological saline containing Tween80 (0.05% (v/v)), this was filtered through a cell strainer (φ40 µm), the spores were recovered from the filtrate by centrifugation (3500 rpm, 5 minutes) and washed twice with physiological saline, and then a spore suspension was prepared (1 × 10^7 spores/mL). 10 µL of the spore suspension was inoculated into Sabouraud media to which compound No. 1 dissolved in DMSO was added to have various concentrations.

[2] = tested on: Malassezia pachydermatis (IFM56528); test: Antifungal activity test, inhibitory concentration by WST-8 viability in 96-well plate (Test Example 11); conditions: M. pachydermatis IFM56528, 32° C. for 72 hours; for MIC: viability 0%, read-out: Inhibitory concentration MIC100; for MIC50: viability 50%
Experimental: Test Example 11: Antifungal Activity Test
Test Compounds: Compound No. 1 and Compound No. 6
Test Microbial Strain: Malassezia Pachydermatis (IFM56528)
The Malassezia microbe (Malassezia pachydermatis) cultured for 5 to 7 days in a Sabouraud dextrose medium (1% peptone, 4% dextrose) was suspended in physiological saline and a Malassezia microbe suspension was prepared in such a way as to have an absorbance of 0.0025 at 600 nm. The microbe suspension was placed in a 96-well plate at 190 µL/well, and 10 µL of the test compound dissolved in DMSO was added thereto in such a way as to provide a final concentration of 500, 250, 125, 62.5, 31.25, 16, 8, 4, 2, 1, or 0.5 ppm, and the 96-well plate was subjected to culturing at 32° C. for 72 hours. After culturing, 20 µL each of WST-8 (viable cell counting reagent, manufactured by Nacalai Tesque, Inc.) was added, and the 96-well plate was kept warm at 32° C. for 5 hours to develop a color. The absorbance at 450 nm was measured using a microplate reader (SpectraMax M2, manufactured by Molecular Devices, LLC). The absorbance of a well to which the test compound was added (absorbance in the inventive plot) and the absorbance of a well in the solvent to which the test compound was not added (absorbance in the non-agent treated plot) were measured, the viability (%) of the Malassezia microbe was determined according to the following expression, and the agent concentration at which the viability was 0% was defined as the minimum inhibitory concentration (MIC100). Further, the agent concentration at which the viability was 50% was defined as the half inhibitory concentration (MIC50).
[…] = [(absorbance in non-agent treated plot - absorbance in inventive plot)/absorbance in non-agent treated plot] × 100

[3] = tested on: Microsporum canis (IFM63627); test: Antifungal activity test, minimum inhibitory concentration (Test Example 7); conditions: Sabouraud medium, 32° C. for 72 hours, read-out: Minimum inhibitory concentration (MIC100)
Experimental: Test Example 7: Antifungal Activity Test
(§1) Test Compound: Compound No. 6
(§2) Test Microbial Strain: Microsporum Canis (IFM63627)
The antifungal activity was studied by partially modifying the method of Test Example 5. Microsporum canis was cultured at 32° C. for 168 hours in a ⅒ Sabouraud medium to form spores, then 10 mL of physiological saline (Otsuka Normal Saline; containing 9 g of sodium chloride in 1000 mL) was added directly onto the medium, and the surface was rubbed using a disposable loop (type 1 (1 µL)) to recover a spore suspension containing hyphae. The spore suspension containing hyphae was filtered through a cell strainer (φ40 µm). The spores were recovered from the filtrate by centrifugation (3500 rpm, 5 minutes) and washed twice with physiological saline, and then a spore suspension was prepared (1 × 10^7 spores/mL). 10 µL of the spore suspension was inoculated into a Sabouraud medium to which the test compound dissolved in DMSO was added to have a predetermined concentration. Microsporum canis was cultured at 32° C. for 72 hours, then the presence or absence of colony growth was investigated, and the minimum inhibitory concentration (MIC100) was determined.

[4] = tested on: Microsporum canis (IFM63627); test: Antifungal activity test, minimum fungicidal concentration on spores (Test Example 8); conditions: read-out: Minimum fungicidal concentration (MFC100)
Experimental: Test Example 8: Antifungal Activity Test
as §1, §2
Microsporum canis was cultured at 32° C. for 168 hours in a ⅒ Sabouraud medium to form spores, then 10 mL of physiological saline (Otsuka Normal Saline; containing 9 g of sodium chloride in 1000 mL) was added directly onto the medium, and the surface was rubbed using a disposable loop (type 1 (1 µL)) to recover a spore suspension containing hyphae. The spore suspension containing hyphae was filtered through a cell strainer (φ40 µm). The spores were recovered from the filtrate by centrifugation (3500 rpm, 5 minutes) and washed twice with physiological saline, and then a spore suspension was prepared (1 × 10^7 spores/mL). 10 µL of the spore suspension was inoculated into 90 µL of physiological saline to which compound No. 6 dissolved in DMSO was added to have a predetermined concentration. […] The 10-µL spore suspension was spotted onto a Sabouraud medium and subjected to culturing at 32° C. for 72 hours, the presence or absence of colony growth was investigated, and the minimum fungicidal concentration (MFC100) was determined.

Structure (SMILES) | MIC [1] | MIC90 [2] | MIC [2] | MIC50 [2] | MIC [3] | MFC ([4]; treatment time 24 Hours) | MFC ([4]; treatment time 96 Hours)
Cc1ccc(-c2nc(C#N)[nH]c2Cl)cc1 [Compound No. 1, 5-Chloro-4-(4-methylphenyl)-1H-imidazole-2-carbonitrile] | 10 µg/mL (≈ 45.9 µM) | 16 µg/mL (≈ 73.5 µM) | 16 µg/mL (≈ 73.5 µM) | 8 µg/mL (≈ 36.8 µM) |  |  | 
Cc1ccc(-c2nc(C#N)[nH]c2Cl)cc1Cl [Compound No. 6, 5-chloro-4-(3-chloro-4-methylphenyl)-1H-imidazole-2-carbonitrile] |  | 4 µg/mL (≈ 15.9 µM) | 4 µg/mL (≈ 15.9 µM) | 2 µg/mL (≈ 7.93 µM) | 5 µg/mL (≈ 19.8 µM) | 50 µg/mL (≈ 198 µM) | 10 µg/mL (≈ 39.7 µM)
